Test results as given in ChEMBL document CHEMBL3046109, “A Method for Monitoring the Sensitivity of Botrytis cinerea to Mepanipyrim” (2004).

Tests used:
Format in all cases: functional
Botrytis cinerea [1] = assay: Fungicidal activity against anilinopyrimidine-resistant Botryotinia fuckeliana CH12.92 infected in strawberry fruit assessed as inhibition of mycelial growth at 50 mg/l treated 2-3 hr before challenge measured after 5 days; conditions: read-out: GI
Botrytis cinerea [2] = assay: Fungicidal activity against anilinopyrimidine-sensitive Botryotinia fuckeliana KU-59 isolated from grape plant assessed as inhibition of mycelial growth at 100 mg/l after 4 days; conditions: KU-59, 96 h, read-out: GI
Botrytis cinerea [3] = assay: Fungicidal activity against anilinopyrimidine-sensitive Botryotinia fuckeliana KU-01 isolated from grape plant assessed as inhibition of mycelial growth at 0.3 mg/l after 4 days; conditions: KU-01, 96 h, read-out: GI
Botrytis cinerea [4] = assay: Fungicidal activity against anilinopyrimidine-sensitive Botryotinia fuckeliana KU-01 isolated from grape plant assessed as inhibition of mycelial growth at 0.1 mg/l after 4 days; conditions: KU-01, 96 h, read-out: GI
Botrytis cinerea [5] = assay: Fungicidal activity against anilinopyrimidine-resistant Botryotinia fuckeliana CH164.94 isolated from grape plant assessed as inhibition of mycelial growth at 100 mg/l after 4 days; conditions: CH164.94, 96 h, read-out: GI
Botrytis cinerea [6] = assay: Fungicidal activity against anilinopyrimidine-resistant Botryotinia fuckeliana CH15.93 isolated from grape plant assessed as inhibition of mycelial growth at 0.1 mg/l after 4 days; conditions: CH15.93, 96 h, read-out: GI
Botrytis cinerea [7] = assay: Fungicidal activity against anilinopyrimidine-resistant Botryotinia fuckeliana CH164.94 isolated from grape plant assessed as inhibition of mycelial growth at 30 mg/l after 4 days; conditions: CH164.94, 96 h, read-out: GI
Botrytis cinerea [8] = assay: Fungicidal activity against anilinopyrimidine-resistant Botryotinia fuckeliana CH164.94 isolated from grape plant assessed as inhibition of mycelial growth at 10 mg/l after 4 days; conditions: CH164.94, 96 h, read-out: GI
Botrytis cinerea [9] = assay: Fungicidal activity against anilinopyrimidine-resistant Botryotinia fuckeliana CH164.94 isolated from grape plant assessed as inhibition of mycelial growth at 3 mg/l after 4 days; conditions: CH164.94, 96 h, read-out: GI
Botrytis cinerea [10] = assay: Fungicidal activity against anilinopyrimidine-resistant Botryotinia fuckeliana CH164.94 isolated from grape plant assessed as inhibition of mycelial growth at 1 mg/l after 4 days; conditions: CH164.94, 96 h, read-out: GI
Botrytis cinerea [11] = assay: Fungicidal activity against anilinopyrimidine-resistant Botryotinia fuckeliana CH164.94 isolated from grape plant assessed as inhibition of mycelial growth at 0.3 mg/l after 4 days; conditions: CH164.94, 96 h, read-out: GI
Botrytis cinerea [12] = assay: Fungicidal activity against anilinopyrimidine-resistant Botryotinia fuckeliana CH164.94 isolated from grape plant assessed as inhibition of mycelial growth at 0.1 mg/l after 4 days; conditions: CH164.94, 96 h, read-out: GI
Botrytis cinerea [13] = assay: Fungicidal activity against anilinopyrimidine-resistant Botryotinia fuckeliana CH15.93 isolated from grape plant assessed as inhibition of mycelial growth at 100 mg/l after 4 days; conditions: CH15.93, 96 h, read-out: GI
Botrytis cinerea [14] = assay: Fungicidal activity against anilinopyrimidine-resistant Botryotinia fuckeliana CH15.93 isolated from grape plant assessed as inhibition of mycelial growth at 30 mg/l after 4 days; conditions: CH15.93, 96 h, read-out: GI
Botrytis cinerea [15] = assay: Fungicidal activity against anilinopyrimidine-resistant Botryotinia fuckeliana CH15.93 isolated from grape plant assessed as inhibition of mycelial growth at 10 mg/l after 4 days; conditions: CH15.93, 96 h, read-out: GI
Botrytis cinerea [16] = assay: Fungicidal activity against anilinopyrimidine-resistant Botryotinia fuckeliana CH15.93 isolated from grape plant assessed as inhibition of mycelial growth at 3 mg/l after 4 days; conditions: CH15.93, 96 h, read-out: GI
Botrytis cinerea [17] = assay: Fungicidal activity against anilinopyrimidine-resistant Botryotinia fuckeliana CH15.93 isolated from grape plant assessed as inhibition of mycelial growth at 1 mg/l after 4 days; conditions: CH15.93, 96 h, read-out: GI
Botrytis cinerea [18] = assay: Fungicidal activity against anilinopyrimidine-resistant Botryotinia fuckeliana CH15.93 isolated from grape plant assessed as inhibition of mycelial growth at 0.3 mg/l after 4 days; conditions: CH15.93, 96 h, read-out: GI
Botrytis cinerea [19] = assay: Fungicidal activity against anilinopyrimidine-resistant Botryotinia fuckeliana CH12.92 isolated from grape plant assessed as inhibition of mycelial growth at 0.1 mg/l after 4 days; conditions: CH12.92, 96 h, read-out: GI
Botrytis cinerea [20] = assay: Fungicidal activity against anilinopyrimidine-resistant Botryotinia fuckeliana CH12.92 isolated from grape plant assessed as inhibition of mycelial growth at 0.3 mg/l after 4 days; conditions: CH12.92, 96 h, read-out: GI
Botrytis cinerea [21] = assay: Fungicidal activity against anilinopyrimidine-resistant Botryotinia fuckeliana CH12.92 isolated from grape plant assessed as inhibition of mycelial growth at 1 mg/l after 4 days; conditions: CH12.92, 96 h, read-out: GI
Botrytis cinerea [22] = assay: Fungicidal activity against anilinopyrimidine-resistant Botryotinia fuckeliana CH12.92 isolated from grape plant assessed as inhibition of mycelial growth at 3 mg/l after 4 days; conditions: CH12.92, 96 h, read-out: GI
Botrytis cinerea [23] = assay: Fungicidal activity against anilinopyrimidine-resistant Botryotinia fuckeliana CH12.92 isolated from grape plant assessed as inhibition of mycelial growth at 10 mg/l after 4 days; conditions: CH12.92, 96 h, read-out: GI
Botrytis cinerea [24] = assay: Fungicidal activity against anilinopyrimidine-resistant Botryotinia fuckeliana CH12.92 isolated from grape plant assessed as inhibition of mycelial growth at 30 mg/l after 4 days; conditions: CH12.92, 96 h, read-out: GI
Botrytis cinerea [25] = assay: Fungicidal activity against anilinopyrimidine-resistant Botryotinia fuckeliana CH12.92 isolated from grape plant assessed as inhibition of mycelial growth at 100 mg/l after 4 days; conditions: CH12.92, 96 h, read-out: GI

CC#Cc1cc(C)nc(Nc2ccccc2)n1 [MEPANIPYRIM]
inhibition of growth at 50 µg/mL (Botrytis cinerea [1]): 0%
inhibition of growth at 100 µg/mL (Botrytis cinerea [2]): 100%
inhibition of growth at 0.3 µg/mL (Botrytis cinerea [3]): 100%
inhibition of growth at 0.1 µg/mL (Botrytis cinerea [4]): 75.5%
inhibition of growth at 100 µg/mL (Botrytis cinerea [5]): 70.8%
inhibition of growth at 0.1 µg/mL (Botrytis cinerea [6]): 0%
inhibition of growth at 30 µg/mL (Botrytis cinerea [7]): 66.2%
inhibition of growth at 10 µg/mL (Botrytis cinerea [8]): 67.1%
inhibition of growth at 3 µg/mL (Botrytis cinerea [9]): 57.9%
inhibition of growth at 1 µg/mL (Botrytis cinerea [10]): 38.3%
inhibition of growth at 0.3 µg/mL (Botrytis cinerea [11]): 0%
inhibition of growth at 0.1 µg/mL (Botrytis cinerea [12]): 0%
inhibition of growth at 100 µg/mL (Botrytis cinerea [13]): 75.4%
inhibition of growth at 30 µg/mL (Botrytis cinerea [14]): 74.1%
inhibition of growth at 10 µg/mL (Botrytis cinerea [15]): 72.6%
inhibition of growth at 3 µg/mL (Botrytis cinerea [16]): 65.7%
inhibition of growth at 1 µg/mL (Botrytis cinerea [17]): 34.9%
inhibition of growth at 0.3 µg/mL (Botrytis cinerea [18]): 0%
inhibition of growth at 0.1 µg/mL (Botrytis cinerea [19]): 0%
inhibition of growth at 0.3 µg/mL (Botrytis cinerea [20]): 19.8%
inhibition of growth at 1 µg/mL (Botrytis cinerea [21]): 42.6%
inhibition of growth at 3 µg/mL (Botrytis cinerea [22]): 60.1%
inhibition of growth at 10 µg/mL (Botrytis cinerea [23]): 65.7%
inhibition of growth at 30 µg/mL (Botrytis cinerea [24]): 63.2%
inhibition of growth at 100 µg/mL (Botrytis cinerea [25]): 70.4%
